Patent US20250000083A1, “CRYOPRESERVATION PREPARATION FOR CORNEAL ENDOTHELIAL CELLS AND METHOD FOR PRODUCING SAID CRYOPRESERVATION PREPARATION” (THE DOSHISHA, priority 2021, published 2025)

Key:
[1] = system: Human corneal endothelial cells; assay: Adhesion of thawed cells cultured in medium with addition of DMSO (phase contrast microscopy), Example 3; assay type: cell-based
Description: (§1) • 1. Collect cells in the same manner as in Example 2 (Steps 1 to 10) and preserve the cells in cryotubes using Cryostor CS2. • 2. Freeze in a programmable freezer from 4° C. to −80° C. at −0.5° C./min. 3. Transfer to a Bicell processing housing previously cooled at −80° C. when a temperature was decreased to −80° C. and cryopreserve the Bicell in a freezer at −80° C. for 3 days. • 4. After 3 days of cryopreservation, thaw the cryotubes in which the cells were preserved in a water bath at 37° C. for 1 to 2 minutes. • 5. Collect the cells in a medium warmed to 37° C. in advance, and measure the number of cells collected and cell viability by trypan blue staining. • 6. Dispense the collected cells into four 15 mL STEMFULLS and centrifuge at 300 G for 5 minutes. • 7. After centrifugation, remove a supernatant, adjust a cell density to 1000 cells/mm^2 using media containing 10%, 5%, 2%, and 0% DMSO, and reseed in 12-well plates. • 8. Photograph the cells under a phase contrast microscope at 1 h, 3 h, 6 h, and 24 h after seeding. • 9. After taking photographs of the cells at each time point, collect all cells in the container, including floating cells, and determine cell viability by trypan blue staining.

[2] = system: Human corneal endothelial cells; assay: Viability of cells reseeded in medium with DMSO and collected (trypan blue), Example 3; assay type: cell-based; conditions: medium containing 10% DMSO
Description: as §1

## C[S+](C)[O-] [DMSO, dimethyl sulfoxide]
[1]; 5% DMSO, after 3 and 6 hours
  cell adhesion: less than half of the cells were adherent
[1]; 5% DMSO, after 1 hour
  cell adhesion: almost no adherent cells
[1]; 5% DMSO, after 24 hours
  cell adhesion: almost no adherent cells
[1]; 10% DMSO, until 24 hours after seeding
  cell adhesion: no cells were adherent
[1]; medium containing 2% DMSO
  adhesion rate compared with medium without DMSO: not different
[1]; medium supplemented with 5% DMSO
  number of cells compared with medium without DMSO: significantly lower
[1]; medium supplemented with 10% DMSO
  number of cells compared with medium without DMSO: significantly lower
[2]; at 1 hour
  viability of cells after reseeded and collected: no decrease in viability
[2]; subsequent to 1 hour
  viability of cells after reseeded and collected: decrease in viability
